For the test, the system named is OVCAR-5 complex spheroid (HUVEC/MSC), viability % T/C. Put plainly: Anticancer human tumor OVCAR-5 cell line growth inhibition [Asc].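 On all read-outs here: spheroids exposed to agents for 7 days before readout.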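 On viability, T/C: 100% = DMSO vehicle-treated wells.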 As to conditions: for viability, T/C: stronger effect = lower value. A digest of the protocol: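 Stromal components (HUVEC and hMSC) are co-assembled with the cancer cells into multicellular spheroids. Drugs are then added singly or paired, at concentrations falling by half-log increments from a clinically achievable maximum, capped at 10 microM without known Cmax.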

“And” between values parts separate entries of the source, which are not always exact repeats. Equal values may be shown once.

Consider `CCN1C(C(=O)NC23CCC(C(=O)O)(CC2)CC3)C(c2cccc(Cl)c2F)C2(C(=O)Nc3cc(Cl)ccc32)C12CCCCC2` (stereo not drawn), for which the viability, T/C reads like this: (compound 0.00949 µM) 101% and 109%; (compound 0.03 µM) 97.1% [middle of 15 runs]; (compound 0.0949 µM) 93.8% [middle of 15 runs]; (compound 0.3 µM) 95.7% [middle of 15 runs]; (compound 0.949 µM) 99.8% [middle of 15 runs]; (compound 3 µM) 103% [middle of 15 runs]. Also, the IC50 reads like this: (compound alone, run of 09/27/2022) greater than 3 µM; (curve of compound) greater than 3 µM.
As to `O=C(c1ccc(F)c(F)c1Nc1ccc(I)cc1F)N1CC(O)([C@@H]2CCCCN2)C1` + Cc1c(S(C)(=O)=O)c(-c2cc(F)cc(N3CCN(c4ccc(NS(=O)(=O)c5ccc(NC(CCN6CCC(C(=O)OCCCP(=O)(O)O)CC6)CSc6ccccc6)c(S(=O)(=O)C(F)(F)F)c5)cc4)CC3)c2)c(-c2ccc(Cl)cc2)n1C(C)C, the IC50 runs as follows: (curve of first compound, second compound 0.1 µM) 0.15 µM; (curve of first compound, second compound 0.316 µM) 0.0826 µM; (curve of first compound, second compound 1 µM) 0.0785 µM; (curve of first compound, second compound 3.16 µM) 0.059 µM; (curve of first compound, second compound 10 µM) 0.0757 µM. The viability, T/C (second compound 0.1 µM, first compound 0.00316 µM) is 104%; the viability, T/C (second compound 0.1 µM, first compound 0.01 µM) was 102%; the viability, T/C (second compound 0.1 µM, first compound 0.0316 µM) was 71.8%; the viability, T/C (second compound 0.1 µM, first compound 0.1 µM) was 54.8%; the viability, T/C (second compound 0.1 µM, first compound 0.316 µM) was 41.9%; the viability, T/C (second compound 0.1 µM, first compound 1 µM) was 17.6%. Also, the viability, T/C (second compound 0.316 µM, first compound 0.00316 µM) is 93.7%; the viability, T/C (second compound 0.316 µM, first compound 0.01 µM) is 97.3%; the viability, T/C (second compound 0.316 µM, first compound 0.0316 µM) was 66.7%; the viability, T/C (second compound 0.316 µM, first compound 0.1 µM) was 42.1%; the viability, T/C (second compound 0.316 µM, first compound 0.316 µM) is 32.2%; the viability, T/C (second compound 0.316 µM, first compound 1 µM) was 9.34%. The viability, T/C is 90.7% (second compound 1 µM, first compound 0.00316 µM); 95% (second compound 1 µM, first compound 0.01 µM); 74.5% (second compound 1 µM, first compound 0.0316 µM); 38.3% (second compound 1 µM, first compound 0.1 µM); 26.9% (second compound 1 µM, first compound 0.316 µM); 4.46% (second compound 1 µM, first compound 1 µM). Also, the viability, T/C by setting is: (second compound 3.16 µM, first compound 0.00316 µM) 81.2%; (second compound 3.16 µM, first compound 0.01 µM) 90.4%; (second compound 3.16 µM, first compound 0.0316 µM) 68.1%; (second compound 3.16 µM, first compound 0.1 µM) 31.6%; (second compound 3.16 µM, first compound 0.316 µM) 18.6%; (second compound 3.16 µM, first compound 1 µM) 1.8%. The viability, T/C (second compound 10 µM, first compound 0.00316 µM) was 115%; the viability, T/C (second compound 10 µM, first compound 0.01 µM) is 112%; the viability, T/C (second compound 10 µM, first compound 0.0316 µM) is 78.8%; the viability, T/C (second compound 10 µM, first compound 0.1 µM) is 41.1%; the viability, T/C (second compound 10 µM, first compound 0.316 µM) is 12.6%; the viability, T/C (second compound 10 µM, first compound 1 µM) was 2.47%.

These data come from PubChem BioAssay AID1963436 (Molecular Pharmacology Branch, DTP, NCI, 2024).
